For this experiment, the target named is SIK2 (Homo sapiens, UniProt Q9H0K1). The experiment in a line: SIK2 Enzymatic Assay High Version 2 (High ATP). Particulars: for IC50: enzyme 6 nM, 6 mM ATP and 400 μM HDAC5tide (each 2× final concentration), 30 minutes pre-incubation, 2 hours, ADP-Glo Max luminescence, read-out: SIK2 high ATP IC50 (μM) (Test Example 2). Type of experiment: biochemical. The essentials: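 At room temperature, enzyme (6 nM, 2× final) was preincubated with compound for 30 min, then 6 mM ATP and 400 μM HDAC5tide (both 2× final) were added for 2 h. ADP formed was measured by ADP-Glo Max (2 h reagent, 1 h detection) using luminescence.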

pIC50: −log10 of the molar value. Like-named read-outs stand apart in the source and are kept apart here.

Chain of SIK2 (Q9H0K1 whole entry, species assumed): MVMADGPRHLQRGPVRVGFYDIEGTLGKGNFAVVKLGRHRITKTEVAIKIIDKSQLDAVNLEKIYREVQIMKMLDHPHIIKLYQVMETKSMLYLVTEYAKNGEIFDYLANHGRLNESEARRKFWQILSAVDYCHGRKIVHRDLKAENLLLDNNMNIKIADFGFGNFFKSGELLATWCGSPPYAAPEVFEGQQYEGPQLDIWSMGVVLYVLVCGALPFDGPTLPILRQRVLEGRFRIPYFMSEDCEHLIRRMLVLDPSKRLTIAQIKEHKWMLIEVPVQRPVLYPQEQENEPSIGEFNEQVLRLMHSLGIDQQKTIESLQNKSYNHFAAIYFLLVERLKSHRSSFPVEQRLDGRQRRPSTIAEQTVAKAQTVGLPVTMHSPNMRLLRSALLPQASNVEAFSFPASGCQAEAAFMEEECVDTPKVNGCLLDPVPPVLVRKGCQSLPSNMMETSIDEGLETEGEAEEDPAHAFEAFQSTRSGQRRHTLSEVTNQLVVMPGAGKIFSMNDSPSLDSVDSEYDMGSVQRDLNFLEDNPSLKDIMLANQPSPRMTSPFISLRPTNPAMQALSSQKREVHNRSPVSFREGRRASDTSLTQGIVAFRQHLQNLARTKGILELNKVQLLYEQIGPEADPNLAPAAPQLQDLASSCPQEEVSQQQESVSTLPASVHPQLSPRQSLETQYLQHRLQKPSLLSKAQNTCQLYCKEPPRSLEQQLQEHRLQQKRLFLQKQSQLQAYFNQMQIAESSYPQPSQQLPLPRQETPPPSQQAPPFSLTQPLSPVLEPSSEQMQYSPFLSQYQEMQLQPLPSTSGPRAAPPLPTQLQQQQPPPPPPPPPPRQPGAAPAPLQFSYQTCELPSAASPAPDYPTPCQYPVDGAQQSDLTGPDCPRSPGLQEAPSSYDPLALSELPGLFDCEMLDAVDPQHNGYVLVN

Take `Cc1cc(Nc2cc3cc(-c4cc(OC(F)F)ncc4OCC(C)(N)C(F)(F)F)ccn3n2)nc(C)n1` (single isomer, unassigned) [Example 756, (*S)-5-[5-(2-amino-3,3,3-trifluoro-2-methyl-propoxy)-2-(difluoromethoxy)-4-pyridyl]-N-(2,6-dimethylpyrimidin-4-yl)pyrazolo[1,5-a]pyridin-2-amine]: the half-maximal inhibitory concentration (IC50) is 0.275 µM.

`Cc1cc(-c2ccn3nc(NC(=O)C4CC4)cc3c2)c(O[C@@H]2CC[C@@H](O)C2)cn1` (stereo in doubt) [Example 569, (1*R, 3*R)—N-[5-[5-(3-hydroxycyclopentoxy)-2-methyl-4-pyridyl]pyrazolo[1,5-a]pyridin-2-yl]cyclopropanecarboxamide] had a pIC50 of 7.14.

In the case of `Cc1cc(-c2ccn3nc(Nc4cnn(C(F)F)c4)cc3c2)c(O[C@H]2C[C@H]3COC[C@@H](C2)N3C)cn1` [Example 116, N-(1-(difluoromethyl)-1H-pyrazol-4-yl)-5-(2-methyl-5-(((1R,5S,7s)-9-methyl-3-oxa-9-azabicyclo[3.3.1]nonan-7-yl)oxy)pyridin-4-yl)pyrazolo[1,5-a]pyridin-2-amine], the negative-log IC50 (pIC50) was above 9.07.

The molecule `Cc1cc(-c2ccn3nc(Nc4cnn(C(F)F)c4)cc3c2)c(O[C@H]2C[C@H]3COC[C@@H](C2)N3)cn1` [Example 117, 5-(5-(((1R,5S,7s)-3-oxa-9-azabicyclo[3.3.1]nonan-7-yl)oxy)-2-methylpyridin-4-yl)-N-(1-(difluoromethyl)-1H-pyrazol-4-yl)pyrazolo[1,5-a]pyridin-2-amine] gave a pIC50 of 9.04.

`Cc1cc(-c2ccn3nc(Nc4nn(C)cc4F)cc3c2)c(O[C@H]2C[C@H]3COC[C@@H](C2)N3C)cn1` [Example 118, N-(4-fluoro-1-methyl-1H-pyrazol-3-yl)-5-(2-methyl-5-(((1R,5S,7s)-9-methyl-3-oxa-9-azabicyclo[3.3.1]nonan-7-yl)oxy)pyridin-4-yl)pyrazolo[1,5-a]pyridin-2-amine] showed a pIC50 above 9.07.

As to `Cc1cc(-c2ccn3nc(Nc4cn(C)nc4F)cc3c2)c(O[C@H]2C[C@H]3COC[C@@H](C2)N3C)cn1` [Example 119, N-(3-fluoro-1-methyl-1H-pyrazol-4-yl)-5-(2-methyl-5-(((1R,5S,7s)-9-methyl-3-oxa-9-azabicyclo[3.3.1]nonan-7-yl)oxy)pyridin-4-yl)pyrazolo[1,5-a]pyridin-2-amine], the negative-log IC50 (pIC50) was 8.90.

As to `Cc1cc(-c2ccn3nc(Nc4cc(F)n(C)n4)cc3c2)c(O[C@H]2C[C@H]3COC[C@@H](C2)N3C)cn1` [Example 120, N-(5-fluoro-1-methyl-1H-pyrazol-3-yl)-5-(2-methyl-5-(((1R,5S,7s)-9-methyl-3-oxa-9-azabicyclo[3.3.1]nonan-7-yl)oxy)pyridin-4-yl)pyrazolo[1,5-a]pyridin-2-amine], the negative-log IC50 (pIC50) is above 9.07.

`Cc1cc(-c2ccn3nc(Nc4cnn(CC(C)(C)O)c4)cc3c2)c(O[C@H]2C[C@H]3COC[C@@H](C2)N3)cn1` [Example 121] had a negative logarithm of the IC50 (pIC50) of 8.94.

`Cc1cc(-c2ccn3nc(Nc4cn(CC(C)(C)O)nc4C(=O)C(F)(F)F)cc3c2)c(O[C@H]2C[C@H]3COC[C@@H](C2)N3)cn1` [Example 122, 1-(4-((5-(5-(((1R,5S,7s)-3-oxa-9-azabicyclo[3.3.1]nonan-7-yl)oxy)-2-methylpyridin-4-yl)pyrazolo[1,5-a]pyridin-2-yl)amino)-1-(2-hydroxy-2-methylpropyl)-1H-pyrazol-3-yl)-2,2,2-trifluoroethan-1-one] gave a pIC50 of 5.62.

In turn, `Cc1cc(-c2ccn3nc(Nc4cnn(C)c4)cc3c2)c(O[C@H]2C[C@H]3COC[C@@H](C2)N3)cn1` [Example 123, 7-endo-5-[2-methyl-5-[[(1S,5R)-3-oxa-9-azabicyclo[3.3.1]nonan-7-yl]oxy]-4-pyridyl]-N-(1-methylpyrazol-4-yl)pyrazolo[1,5-a]pyridin-2-amine] had a negative-log IC50 (pIC50) of 9.03.

`Cc1cc(-c2ccn3nc(Nc4cnn(C)c4)cc3c2)c(O[C@H]2C[C@H]3COC[C@@H](C2)N3C)cn1` [Example 124] gave a pIC50 of 8.91.

On to `Cc1cc(-c2ccn3nc(Nc4ccn(C)n4)cc3c2)c(O[C@H]2C[C@H]3COC[C@@H](C2)N3)cn1` [Example 125, endo-5-(5-(((1R,5S,7s)-3-oxa-9-azabicyclo[3.3.1]nonan-7-yl)oxy)-2-methylpyridin-4-yl)-N-(1-methyl-1H-pyrazol-3-yl)pyrazolo[1,5-a]pyridin-2-amine], for which the pIC50 was above 9.07.

For the molecule `Cc1cc(-c2ccn3nc(Nc4ccc(F)cn4)cc3c2)c(O[C@H]2C[C@H]3COC[C@@H](C2)N3C)cn1` [Example 126], the pIC50 was above 9.07.

On to `Cc1cc(-c2ccn3nc(Nc4ccc(F)cn4)cc3c2)c(O[C@H]2C[C@H]3COC[C@@H](C2)N3)cn1` [Example 127, 5-(5-(((1R,5S,7s)-3-oxa-9-azabicyclo[3.3.1]nonan-7-yl)oxy)-2-methylpyridin-4-yl)-N-(5-fluoropyridin-2-yl)pyrazolo[1,5-a]pyridin-2-amine], for which the pIC50 is above 9.07.

With `Cc1cc(-c2ccn3nc(Nc4cnn(C)c4)cc3c2)c(OC[C@@H]2CNCCO2)cn1` [Example 128, 5-[2-methyl-5-[[(2S)-morpholin-2-yl]methoxy]-4-pyridyl]-N-(1-methylpyrazol-4-yl)pyrazolo[1,5-a]pyridin-2-amine], the IC50 amounted to 0.0249 µM.

`Cc1cc(-c2ccn3nc(Nc4ccccn4)cc3c2)c(OC[C@@H]2CNCCO2)cn1` [Example 130, 5-[2-methyl-5-[[(2S)-morpholin-2-yl]methoxy]-4-pyridyl]-N-(2-pyridyl)pyrazolo[1,5-a]pyridin-2-amine] showed a pIC50 of 8.37.

Take `Cc1cc(-c2ccn3nc(Nc4cccnc4)cc3c2)c(OC[C@@H]2CNCCO2)cn1` [Example 131, 5-[2-methyl-5-[[(2S)-morpholin-2-yl]methoxy]-4-pyridyl]-N-(3-pyridyl)pyrazolo[1,5-a]pyridin-2-amine]: the IC50 is 0.0524 µM.

With `Cc1cc(-c2ccn3nc(Nc4ccncn4)cc3c2)c(OC[C@@H]2CNCCO2)cn1` [Example 132, 5-[2-methyl-5-[[(2S)-morpholin-2-yl]methoxy]-4-pyridyl]-N-pyrimidin-4-yl-pyrazolo[1,5-a]pyridin-2-amine], the concentration for half-maximal inhibition (IC50) is 0.00951 µM.

For the molecule `Cc1cc(-c2ccn3nc(Nc4cnn(C(C)C)c4)cc3c2)c(OC[C@@H]2CNCCO2)cn1` [Example 133, N-(1-isopropylpyrazol-4-yl)-5-[2-methyl-5-[[(2S)-morpholin-2-yl]methoxy]-4-pyridyl]pyrazolo[1,5-a]pyridin-2-amine], the IC50 stood at 0.00845 µM.

Regarding `Cc1cc(-c2ccn3nc(Nc4cccnn4)cc3c2)c(OC[C@@H]2CNCCO2)cn1` [Example 134, 5-[2-methyl-5-[[(2S)-morpholin-2-yl]methoxy]-4-pyridyl]-N-pyridazin-3-yl-pyrazolo[1,5-a]pyridin-2-amine], the IC50 came to 0.0128 µM.

For `Cc1cc(-c2ccn3nc(Nc4ccn(C(C)C)n4)cc3c2)c(OC[C@@H]2CNCCO2)cn1` [Example 135, N-(1-isopropylpyrazol-3-yl)-5-[2-methyl-5-[[(2S)-morpholin-2-yl]methoxy]-4-pyridyl]pyrazolo[1,5-a]pyridin-2-amine], the IC50 turned out to be 0.00986 µM.

On to `Cc1cc(-c2ccn3nc(NC(=O)C4CC4)cc3c2)c(O[C@H]2CC[C@](C)(O)CC2)cn1` [Example 151, trans-N-(5-(5-(((1r,4r)-4-hydroxy-4-methylcyclohexyl)oxy)-2-methylpyridin-4-yl)pyrazolo[1,5-a]pyridin-2-yl)cyclopropanecarboxamide], for which the half-maximal inhibitory concentration (IC50) turned out to be 0.00378 µM.

On to `Cc1cc(-c2ccn3nc(NC(=O)C4CC4)cc3c2)c(OCC2(NC3CC3)CCC2)cn1` [Example 157, N-[5-[5-[[1-(cyclopropylamino)cyclobutyl]methoxy]-2-methyl-4-pyridyl]pyrazolo[1,5-a]pyridin-2-yl]cyclopropanecarboxamide], for which the IC50 is 0.0708 µM.

`CCN1[C@@H]2COC[C@H]1C[C@@H](Oc1cnc(C)cc1-c1ccn3nc(NC(=O)C4CC4)cc3c1)C2` [Example 161, 7-endo-N-(5-(5-(((1R,5S,7s)-9-ethyl-3-oxa-9-azabicyclo[3.3.1]nonan-7-yl)oxy)-2-methylpyridin-4-yl)pyrazolo[1,5-a]pyridin-2-yl)cyclopropanecarboxamide] gave a pIC50 above 9.07.

In the case of `Cc1cc(-c2ccn3nc(Nc4ccn(C)n4)cc3c2)c(OCC2(N)CC(F)(F)C2)cn1` [Example 162, 5-[5-[(1-amino-3,3-difluoro-cyclobutyl)methoxy]-2-methyl-4-pyridyl]-N-(1-methylpyrazol-3-yl)pyrazolo[1,5-a]pyridin-2-amine], the IC50 worked out at 0.0196 µM.

As for `Cc1cc(-c2ccn3nc(Nc4cnn(C)c4)cc3c2)c(O[C@H]2CC[C@](C)(O)CC2)cn1` [Example 163, (1r,4r)-1-methyl-4-((6-methyl-4-(2-((1-methyl-1H-pyrazol-4-yl)amino)pyrazolo[1,5-a]pyridin-5-yl)pyridin-3-yl)oxy)cyclohexan-1-ol], the IC50 was 0.00795 µM.

`Cc1cc(-c2ccn3nc(NC(=O)C4CC4)cc3c2)c(O[C@H]2[C@@H]3CN(C)[C@H]2CO3)cn1` [Example 164, N-(5-(2-methyl-5-(((1S,4S,7R)-5-methyl-2-oxa-5-azabicyclo[2.2.1]heptan-7-yl)oxy)pyridin-4-yl)pyrazolo[1,5-a]pyridin-2-yl)cyclopropanecarboxamide] showed a pIC50 of 6.66.

On to `Cc1cc(-c2ccn3nc(NC(=O)C4CC4)cc3c2)c(O[C@@H]2[C@@H]3CO[C@H]2CN3)cn1` [Example 165, N-(5-(5-(((1S,4S,7R)-2-oxa-5-azabicyclo[2.2.1]heptan-7-yl)oxy)-2-methylpyridin-4-yl)pyrazolo[1,5-a]pyridin-2-yl)cyclopropanecarboxamide], for which the negative-log IC50 (pIC50) was 8.08.

The values are drawn from patent US20240158392A1 (Janssen Biotech, Inc., priority 2021, published 2024).
